This note sets out measurements from publication PMC10832398 (Molecular cancer therapeutics, 2023).

Experiment [1] concerns HS01 cells. The experiment is described as follows: Combination matrix cell viability assay. The experiment is classed as cell-based, human.
Experiment [2] concerns HS02 cells. Nature of the experiment: Combination matrix cell viability assay. Type of experiment: cell-based, human.
Experiment [3] has as its system phospho-AKT, phospho-FAK, phospho-Src, EphA2, cyclin D1, p21 in HS01 cells. Nature of the experiment: Western blots of whole cell lysates of HS01 cells. The experiment is classed as cell-based, human. The settings on record: HS01, 24h.
Experiment [4] deals with primary human vestibular schwannoma (VS) cells. Nature of the experiment: ApoTox-Glo viability in primary VS cells. Type of experiment: cell-based. The settings on record: 96 hrs; omipalisib 16nM; dasatinib 200, 400, and 800nM.
Setting [5] is: Homo sapiens, 72 h, HS01, single drug within the combination matrix.
Where [6] appears, read: Homo sapiens, 72 h, HS02, single drug within the combination matrix.
Where [7] appears, read: HS01, single drug within the combination matrix, 72h.
The mark [8] stands for this setting: HS02, single drug within the combination matrix, 72h.

“And” between values parts separate entries of the source, which are not always exact repeats. Equal entries are not always repeated.

In the case of `Nc1cc(C(F)(F)F)c(-c2cc(N3CCOCC3)nc(N3CCOCC3)n2)cn1` [Buparlisib], the GI50 in experiment [1] (setting [5]) came to 4300 nM; in experiment [2] (setting [6]), 4.9 µM.
The like results for `CNC(=O)c1ccccc1Nc1cc(Nc2ccc(N3CCOCC3)cc2OC)ncc1C(F)(F)F` [PND-1186] were, in that order, over 10000 nM and over 10 µM.
Turning to `CN(C)C1CCN(C(=O)c2ccc(NC(=O)Nc3ccc(-c4nc(N5CCOCC5)nc(N5CCOCC5)n4)cc3)cc2)CC1` [Gedatolisib], the GI50 in experiment [1] (Homo sapiens, 72 h) is 80 nM; in experiment [2] (Homo sapiens, 72 h), 0.09 µM.
For `Cc1nc(Nc2ncc(C(=O)Nc3c(C)cccc3Cl)s2)cc(N2CCN(CCO)CC2)n1` [Dasatinib, dasatinib], the figures for the GI50 in experiment [1] (setting [5]) and in experiment [2] (setting [6]) were over 10000 nM and over 10 µM, respectively. For the same molecule, the “phosphorylated FAK-Tyr576 and Src-Tyr527” value in experiment [3] (dasatinib 100 and 400nM alone or in combination) is given as “Dose-dependent decreases”.
As to `CNC(=O)c1ccccc1Nc1nc(Nc2ccc(N3CCOCC3)cc2OC)ncc1Cl` [TAE226], the GI50 was 1000 nM in experiment [1] (setting [7]) and 2.1 µM in experiment [2] (setting [8]).
For the molecule `COc1ncc(-c2ccc3nccc(-c4ccnnc4)c3c2)cc1NS(=O)(=O)c1ccc(F)cc1F` [Omipalisib, omipalisib], the “reduction in viability (mean fold change of all VS tumors)” value in experiment [4] was at least 20%. In addition, the GI50 in experiment [1] (setting [7]) was 20 nM. In addition, the GI50 in experiment [1] (Homo sapiens, alone in HS01 cells) lay within 50 to 80 nM. In addition, in experiment [1] (omipalisib/dasatinib matrix, Fig. 1A (HS01, HS02)), the synergistic doses lay within 39 to 156 nM. In addition, in experiment [3] (0.1 μM), the “Cyclin D1 levels” value is “reduced” and the p21 levels result was “not observed”. In addition, the “Phospho-AKT (T308 and S473) decrease” value in experiment [3] (omipalisib 4 and 16nM alone or with dasatinib 100 and 400nM) was 91-99%. Further, the “phosphorylated Src-Tyr527 levels compared to vehicle” value in experiment [3] (omipalisib alone) is “increased”.
On to `CS(=O)(=O)N1CCN(Cc2cc3nc(-c4cccc5[nH]ncc45)nc(N4CCOCC4)c3s2)CC1` [Pictilisib], for which the concentration for 50% growth inhibition (GI50) in experiment [2] (setting [6]) is over 10 µM.
With `CCn1c(=O)c(-c2cc[nH]n2)cc2c(C)nc(N)nc21` [Voxtalisib], the results for the GI50 in experiment [1] (setting [5]) and in experiment [2] (setting [6]) were over 10000 nM and over 10 µM, respectively.
Regarding `CN(c1ncccc1CNc1nc(Nc2ccc3c(c2)CC(=O)N3)ncc1C(F)(F)F)S(C)(=O)=O` [PF-00562271], the concentration for 50% growth inhibition (GI50) in experiment [2] (setting [8]) was 6.5 µM and 3.8 µM.
